Measurements published in PubChem BioAssay AID1259407 (Chemical Carcinogenesis Research Information System (CCRIS), 2018).
Activity calls are given as the source filed them. How the calls were made is not given here.

System: CCRIS mutagenicity, Ames/micronucleus/aberration tests
Test: CCRIS mutagenicity studies
[1] = Test System: AMES SALMONELLA TYPHIMURIUM, Strain/Indicator: TA98, Metabolic Activation: NONE, Method: STANDARD PLATE
[2] = Test System: AMES SALMONELLA TYPHIMURIUM, Strain/Indicator: TA100, Metabolic Activation: NONE, Method: STANDARD PLATE
[3] = Test System: AMES SALMONELLA TYPHIMURIUM, Strain/Indicator: TA100, Metabolic Activation: NONE, Method: PREINCUBATION

SMILES: CC(C(=O)O)c1ccc2c(c1)[nH]c1ccc(Cl)cc12 (configuration not stated)
- mutagenic call (Test System: AMES SALMONELLA TYPHIMURIUM, Strain/Indicator: TA98, Metabolic Activation: RAT, LIVER, S-9, PCB, Method: STANDARD PLATE): inactive; negative
- mutagenic call (Test System: AMES SALMONELLA TYPHIMURIUM, Strain/Indicator: TA100, Metabolic Activation: RAT, LIVER, S-9, PCB, Method: STANDARD PLATE): inactive; negative
- mutagenic call (Test System: AMES SALMONELLA TYPHIMURIUM, Strain/Indicator: TA1537, Metabolic Activation: RAT, LIVER, S-9, PCB, Method: STANDARD PLATE): inactive; negative
- mutagenic call (Test System: AMES SALMONELLA TYPHIMURIUM, Strain/Indicator: TA1538, Metabolic Activation: RAT, LIVER, S-9, PCB, Method: STANDARD PLATE): inactive; negative
- mutagenic call (Test System: E. COLI, Strain/Indicator: WP2 UVRA, Metabolic Activation: RAT, LIVER, S-9, PCB, Method: STANDARD PLATE): inactive; negative

SMILES: C=CCCCCCCCCCCCC
- mutagenic call [1]: inactive; negative
- mutagenic call (Test System: AMES SALMONELLA TYPHIMURIUM, Strain/Indicator: TA98, Metabolic Activation: RAT, LIVER, S-9, AROCLOR, Method: STANDARD PLATE): inactive; negative
- mutagenic call [2]: inactive; negative
- mutagenic call (Test System: AMES SALMONELLA TYPHIMURIUM, Strain/Indicator: TA100, Metabolic Activation: RAT, LIVER, S-9, AROCLOR, Method: STANDARD PLATE): inactive; negative
- mutagenic call (Test System: AMES SALMONELLA TYPHIMURIUM, Strain/Indicator: UTH8413, Metabolic Activation: NONE, Method: STANDARD PLATE): inactive; negative
- mutagenic call (Test System: AMES SALMONELLA TYPHIMURIUM, Strain/Indicator: UTH8413, Metabolic Activation: RAT, LIVER, S-9, AROCLOR, Method: STANDARD PLATE): inactive; negative
- mutagenic call (Test System: AMES SALMONELLA TYPHIMURIUM, Strain/Indicator: UTH8414, Metabolic Activation: NONE, Method: STANDARD PLATE): inactive; negative
- mutagenic call (Test System: AMES SALMONELLA TYPHIMURIUM, Strain/Indicator: UTH8414, Metabolic Activation: RAT, LIVER, S-9, AROCLOR, Method: STANDARD PLATE): inactive; negative

SMILES: [S]=[Co]
- mutagenic call (Test System: CHINESE HAMSTER G10, Strain/Indicator: G10 (GPT)/6-THIOGUANINE, Metabolic Activation: NONE): inactive; negative
- mutagenic call (Test System: CHINESE HAMSTER G12, Strain/Indicator: G12 (GPT)/6-THIOGUANINE, Metabolic Activation: NONE): active; positive
- mutagenic call (Test System: CHINESE HAMSTER V-79, Strain/Indicator: V-79 (HPRT)/6-THIOGUANINE, Metabolic Activation: NONE): inactive; negative

SMILES: Cc1ccc(NN=NCc2ccccc2)cc1
- mutagenic call (Test System: AMES SALMONELLA TYPHIMURIUM, Strain/Indicator: TA98, Metabolic Activation: NONE, Method: PREINCUBATION): active; positive
- mutagenic call (Test System: AMES SALMONELLA TYPHIMURIUM, Strain/Indicator: TA98, Metabolic Activation: RAT, LIVER, S-9, PCB, Method: PREINCUBATION): active; positive
- mutagenic call [3]: active; positive
- mutagenic call (Test System: AMES SALMONELLA TYPHIMURIUM, Strain/Indicator: TA100, Metabolic Activation: RAT, LIVER, S-9, PCB, Method: PREINCUBATION): active; positive

SMILES: C=CC(=O)OCC(C)(C)C
- mutagenic call [1]: inactive; negative
- mutagenic call (Test System: AMES SALMONELLA TYPHIMURIUM, Strain/Indicator: TA98, Metabolic Activation: RAT, LIVER, S-9, AROCLOR 1254, Method: STANDARD PLATE): inactive; negative
- mutagenic call (Test System: AMES SALMONELLA TYPHIMURIUM, Strain/Indicator: TA98, Metabolic Activation: RAT, LIVER, S-9, SODIUM PHENOBARBITAL, Method: STANDARD PLATE): inactive; negative
- mutagenic call [2]: inactive; negative
- mutagenic call (Test System: AMES SALMONELLA TYPHIMURIUM, Strain/Indicator: TA100, Metabolic Activation: RAT, LIVER, S-9, AROCLOR 1254, Method: STANDARD PLATE): inactive; negative
- mutagenic call (Test System: AMES SALMONELLA TYPHIMURIUM, Strain/Indicator: TA100, Metabolic Activation: RAT, LIVER, S-9, SODIUM PHENOBARBITAL, Method: STANDARD PLATE): inactive; negative
- mutagenic call (Test System: AMES SALMONELLA TYPHIMURIUM, Strain/Indicator: TA1535, Metabolic Activation: NONE, Method: STANDARD PLATE): inactive; negative
- mutagenic call (Test System: AMES SALMONELLA TYPHIMURIUM, Strain/Indicator: TA1535, Metabolic Activation: RAT, LIVER, S-9, AROCLOR 1254, Method: STANDARD PLATE): inactive; negative
- mutagenic call (Test System: AMES SALMONELLA TYPHIMURIUM, Strain/Indicator: TA1535, Metabolic Activation: RAT, LIVER, S-9, SODIUM PHENOBARBITAL, Method: STANDARD PLATE): inactive; negative
- mutagenic call (Test System: AMES SALMONELLA TYPHIMURIUM, Strain/Indicator: TA1537, Metabolic Activation: NONE, Method: STANDARD PLATE): inactive; negative
- mutagenic call (Test System: AMES SALMONELLA TYPHIMURIUM, Strain/Indicator: TA1537, Metabolic Activation: RAT, LIVER, S-9, AROCLOR 1254, Method: STANDARD PLATE): inactive; negative
- mutagenic call (Test System: AMES SALMONELLA TYPHIMURIUM, Strain/Indicator: TA1537, Metabolic Activation: RAT, LIVER, S-9, SODIUM PHENOBARBITAL, Method: STANDARD PLATE): inactive; negative
- mutagenic call (Test System: AMES SALMONELLA TYPHIMURIUM, Strain/Indicator: TA1538, Metabolic Activation: NONE, Method: STANDARD PLATE): inactive; negative
- mutagenic call (Test System: AMES SALMONELLA TYPHIMURIUM, Strain/Indicator: TA1538, Metabolic Activation: RAT, LIVER, S-9, AROCLOR 1254, Method: STANDARD PLATE): inactive; negative
- mutagenic call (Test System: AMES SALMONELLA TYPHIMURIUM, Strain/Indicator: TA1538, Metabolic Activation: RAT, LIVER, S-9, SODIUM PHENOBARBITAL, Method: STANDARD PLATE): inactive; negative

SMILES: O=[N+]([O-])c1ccc(Cl)c(F)c1
- mutagenic call (End Point: IN VITRO CHROMOSOMAL ABERRATIONS, Test System: HUMAN PERIPHERAL LYMPHOCYTES, Metabolic Activation: NONE): inactive; negative

SMILES: CN(C)c1ccc(N=Nc2cccc3ccccc23)cc1
- mutagenic call (Test System: AMES SALMONELLA TYPHIMURIUM, Strain/Indicator: TA98, Metabolic Activation: HAMSTER, LIVER, S-9, AROCLOR 1254, Method: STANDARD PLATE): active; positive
- mutagenic call (Test System: AMES SALMONELLA TYPHIMURIUM, Strain/Indicator: TA98, Metabolic Activation: HAMSTER, LIVER, S-9, Method: PREINCUBATION (PRIVAL METHOD)): active; positive
- mutagenic call (Test System: AMES SALMONELLA TYPHIMURIUM, Strain/Indicator: TA98, Metabolic Activation: RAT, LIVER, S-9, AROCLOR 1254, HAMSTER, LIVER, S-9, AROCLOR 1254, Method: STANDARD PLATE): active; positive
- mutagenic call (Test System: AMES SALMONELLA TYPHIMURIUM, Strain/Indicator: TA100, Metabolic Activation: HAMSTER, LIVER, S-9, AROCLOR 1254, Method: STANDARD PLATE): active; positive
- mutagenic call (Test System: AMES SALMONELLA TYPHIMURIUM, Strain/Indicator: TA100, Metabolic Activation: HAMSTER, LIVER, S-9, Method: PREINCUBATION (PRIVAL METHOD)): active; positive
- mutagenic call (Test System: AMES SALMONELLA TYPHIMURIUM, Strain/Indicator: TA1535, Metabolic Activation: RAT, LIVER, S-9, AROCLOR 1254, HAMSTER, LIVER, S-9, AROCLOR 1254, Method: STANDARD PLATE): active; positive
- mutagenic call (Test System: AMES SALMONELLA TYPHIMURIUM, Strain/Indicator: TA1538, Metabolic Activation: RAT, LIVER, S-9, AROCLOR 1254, HAMSTER, LIVER, S-9, AROCLOR 1254, Method: STANDARD PLATE): active; positive
- mutagenic call (Test System: MOUSE LYMPHOMA, Strain/Indicator: L5178Y (TK+/TK-), Metabolic Activation: RAT, LIVER, S-9, AROCLOR 1254, Method: SUSPENSION/PLATE): active; positive. reevaluation of results: positive
- mutagenic call (Test System: Mouse lymphoma, Strain/Indicator: L5178Y (tk+/tk-), Metabolic Activation: None, Method: Suspension/plate): active; positive

SMILES: N[C@@H](CS/C(Cl)=C(\Cl)C(Cl)(Cl)Cl)C(=O)O
- mutagenic call [3]: active; positive
- mutagenic call (Test System: AMES SALMONELLA TYPHIMURIUM, Strain/Indicator: TA100, Metabolic Activation: RAT, LIVER OR KIDNEY, MICROSOMES, Method: PREINCUBATION): active; positive
